Results published in patent US20230263822A1, “MODULATION OF FACTOR 11 EXPRESSION” (Ionis Pharmaceuticals, Inc., priority 2008, published 2023).

Experiment: Hematology assays in cynomolgus monkeys (Example 45)
Format: in vivo
Procedure: Groups, each consisting of two male and three female monkeys, were injected subcutaneously with ISIS 416838, ISIS 416850, ISIS 416858, ISIS 416864, or ISIS 417002 in escalating doses. Antisense oligonucleotide was administered to the monkeys at 5 mg/kg three times per a week for week 1; 5 mg/kg twice per week for weeks 2 and 3; 10 mg/kg three times per week for week 4; 10 mg/kg twice per week for weeks 5 and 6; 25 mg/kg three times per week for week 7; and 25 mg/kg twice per week for weeks 8, 9, 10, 11, and 12. One control group, consisting of two male and three female monkeys, was injected subcutaneously with PBS according to the same dosing regimen. An additional experimental group, consisting of two male and three female monkeys, was injected subcutaneously with ISIS 416850 in a chronic, lower dose regimen. Antisense oligonucleotide was administered to the monkeys at 5 mg/kg three times per week for week 1; 5 mg/kg twice per week for week 2 and 3; 10 mg/kg three times per week for week 4; and 10 mg/kg twice per week for weeks 5 to 12. Body weights were measured weekly. Blood samples were collected 14 days and 5 days before the start of treatment and subsequently once per week for Factor 11 protein activity analysis in plasma, fibrinogen measurement, PT and aPTT measurements, bleeding times, and measurement of various hematologic factors. On day 85, the monkeys were euthanized by exsanguination while under deep anesthesia, and organs harvested for further analysis.
The ISIS oligonucleotide, ISIS 416850, given with the chronic dose regimen is distinguished from the other oligonucleotides with an asterisk (*).

[1] = day 8, chronic dose regimen (*)
[2] = day 15, chronic dose regimen (*)
[3] = day 15, escalating dose regimen
[4] = day 22, chronic dose regimen (*)
[5] = day 22, escalating dose regimen
[6] = day 29, chronic dose regimen (*)
[7] = day 29, escalating dose regimen
[8] = day 36, chronic dose regimen (*)
[9] = day 36, escalating dose regimen
[10] = day 43, chronic dose regimen (*)

ISIS 416850: MOE gapmer, nucleobases 1275 to 1318 of SEQ ID NO: 1 (Table 8) (antisense TGCACAGTTTCTGGCAGGCC; MOE gapmer, wing and gap sizes not given here)
MCH (Day 64, escalating dose regimen): 22 pg
MCH (Day 71, escalating dose regimen): 23 pg
MCH (Day 78, escalating dose regimen): 23 pg
MCH (Day 85, escalating dose regimen): 22 pg
basophils (day 8): 0.2%
eosinophils (day 8): 1.1%
lymphocytes (day 8): 39%
monocytes (day 8): 1.8%
neutrophils (day 8): 57%
platelet count (day 8): 548000 µL⁻¹
reticulocytes (day 8): 1.2%
MCH [1]: 23 pg
MCHC [1]: 29 g/dL
MCV [1]: 79 fL
RBC count [1]: 5.5e+06 µL⁻¹
WBC count [1]: 13000 µL⁻¹
basophils [1]: 0.3%
eosinophils [1]: 0.5%
hematocrit [1]: 43%
hemoglobin [1]: 12.5 g/dL
lymphocytes [1]: 44%
monocytes [1]: 1.8%
neutrophils [1]: 53%
platelet count [1]: 401000 µL⁻¹
reticulocytes [1]: 1.1%
MCH (day 8, escalating dose regimen): 23 pg
MCHC (day 8, escalating dose regimen): 29 g/dL
MCV (day 8, escalating dose regimen): 80 fL
RBC count (day 8, escalating dose regimen): 5.4e+06 µL⁻¹
WBC count (day 8, escalating dose regimen): 10000 µL⁻¹
hematocrit (day 8, escalating dose regimen): 43%
hemoglobin (day 8, escalating dose regimen): 12.4 g/dL
basophils (day 15): 0.2%
eosinophils (day 15): 1.0%
lymphocytes (day 15): 38%
monocytes (day 15): 2.0%
neutrophils (day 15): 58%
platelet count (day 15): 559000 µL⁻¹
reticulocytes (day 15): 1.9%
MCH [2]: 23 pg
MCHC [2]: 30 g/dL
MCV [2]: 75 fL
RBC count [2]: 5.3e+06 µL⁻¹
WBC count [2]: 16000 µL⁻¹
basophils [2]: 0.2%
eosinophils [2]: 0.2%
hematocrit [2]: 40%
hemoglobin [2]: 12.2 g/dL
lymphocytes [2]: 24%
monocytes [2]: 1.5%
neutrophils [2]: 73%
platelet count [2]: 396000 µL⁻¹
reticulocytes [2]: 1.0%
MCH [3]: 23 pg
MCHC [3]: 30 g/dL
MCV [3]: 76 fL
RBC count [3]: 5.3e+06 µL⁻¹
WBC count [3]: 9000 µL⁻¹
hematocrit [3]: 40%
hemoglobin [3]: 12.1 g/dL
basophils (day 22): 0.2%
eosinophils (day 22): 0.7%
lymphocytes (day 22): 39%
monocytes (day 22): 2.4%
neutrophils (day 22): 57%
platelet count (day 22): 466000 µL⁻¹
reticulocytes (day 22): 1.9%
MCH [4]: 23 pg
MCHC [4]: 29 g/dL
MCV [4]: 79 fL
RBC count [4]: 5.1e+06 µL⁻¹
WBC count [4]: 15000 µL⁻¹
basophils [4]: 0.1%
eosinophils [4]: 0.5%
hematocrit [4]: 40%
hemoglobin [4]: 11.7 g/dL
lymphocytes [4]: 33%
monocytes [4]: 1.9%
neutrophils [4]: 64%
platelet count [4]: 347000 µL⁻¹
reticulocytes [4]: 1.0%
MCH [5]: 24 pg
MCHC [5]: 28 g/dL
MCV [5]: 83 fL
RBC count [5]: 5e+06 µL⁻¹
WBC count [5]: 10000 µL⁻¹
hematocrit [5]: 41%
hemoglobin [5]: 11.6 g/dL
basophils (day 29): 0.2%
eosinophils (day 29): 1.2%
lymphocytes (day 29): 43%
monocytes (day 29): 2.7%
neutrophils (day 29): 53%
platelet count (day 29): 475000 µL⁻¹
reticulocytes (day 29): 2.5%
MCH [6]: 23 pg
MCHC [6]: 28 g/dL
MCV [6]: 82 fL
RBC count [6]: 5.2e+06 µL⁻¹
WBC count [6]: 14000 µL⁻¹
basophils [6]: 0.3%
eosinophils [6]: 0.8%
hematocrit [6]: 42%
hemoglobin [6]: 12.0 g/dL
lymphocytes [6]: 53%
monocytes [6]: 2.7%
neutrophils [6]: 42%
platelet count [6]: 370000 µL⁻¹
reticulocytes [6]: 1.4%
MCH [7]: 23 pg
MCHC [7]: 28 g/dL
MCV [7]: 83 fL
RBC count [7]: 4.9e+06 µL⁻¹
WBC count [7]: 11000 µL⁻¹
hematocrit [7]: 41%
hemoglobin [7]: 11.5 g/dL
basophils (day 36): 0.3%
eosinophils (day 36): 1.7%
lymphocytes (day 36): 39%
monocytes (day 36): 2.1%
neutrophils (day 36): 57%
platelet count (day 36): 505000 µL⁻¹
reticulocytes (day 36): 2.2%
MCH [8]: 23 pg
MCHC [8]: 30 g/dL
MCV [8]: 76 fL
RBC count [8]: 5.3e+06 µL⁻¹
WBC count [8]: 16000 µL⁻¹
basophils [8]: 0.1%
eosinophils [8]: 0.4%
hematocrit [8]: 41%
hemoglobin [8]: 12.3 g/dL
lymphocytes [8]: 26%
monocytes [8]: 1.5%
neutrophils [8]: 72%
platelet count [8]: 379000 µL⁻¹
reticulocytes [8]: 1.3%
MCH [9]: 23 pg
MCHC [9]: 29 g/dL
MCV [9]: 80 fL
RBC count [9]: 5.3e+06 µL⁻¹
WBC count [9]: 10000 µL⁻¹
hematocrit [9]: 42%
hemoglobin [9]: 12.2 g/dL
basophils (day 43): 0.3%
eosinophils (day 43): 1.2%
lymphocytes (day 43): 45%
monocytes (day 43): 2.6%
neutrophils (day 43): 50%
platelet count (day 43): 490000 µL⁻¹
reticulocytes (day 43): 1.6%
MCH [10]: 23 pg
MCHC [10]: 30 g/dL
MCV [10]: 77 fL
RBC count [10]: 5.2e+06 µL⁻¹
WBC count [10]: 15000 µL⁻¹
basophils [10]: 0.2%
eosinophils [10]: 0.4%
hematocrit [10]: 40%
hemoglobin [10]: 11.8 g/dL
lymphocytes [10]: 36%
